Source: the NIST ThermoML archive (doi:10.1021/je300683r)
Numbers after ± are expanded uncertainties.

What was measured:
[1] = refractive index (Na D-line) (dimensionless); details: 293.15 K; 101.33 kPa; Liquid; Standard Abbe refractometry
[2] = 293.15 K; 101.33 kPa; Liquid; Vibrating tube method

Row | Compound | refractive index [1] | mass density [2]
1 | CC(C)CCO [3-methylbutan-1-ol] | 1.413 ± 0.0008 | 810.2 ± 1.1 kg/m3
2 | CCO [ethanol] | 1.3616 ± 0.0012 | 790 ± 1 kg/m3
3 | CC(C)CO [2-methyl-1-propanol] | 1.3955 ± 0.0008 | 802 ± 1 kg/m3
4 | O [water] | 1.3328 ± 0.0007 | 998.4 ± 1 kg/m3
